# Measured values taken from publication PMC10778824, “New Chalcone Derivatives Containing 2,4-Dichlorobenzenesulfonamide Moiety with Anticancer and Antioxidant Properties” (International Journal of Molecular Sciences, 2023).
# How the values were obtained:
# neutrophil elastase = biological target: T1, neutrophil elastase (Sus scrofa, UniProt P00772); test: Elastase assay (SANA substrate); type: biochemical, porcine; conditions: Tris-HCl pH 8.0, SANA substrate; read-out: neutrophil elastase inhibition IC50 (converted)
# T1 construct: purchased Sigma Chemical Co. (St. Louis, MO, USA)
# Procedure: The elastase analysis was performed according to the spectrophotometric method with oleanolic acid as a reference. The reaction mixture (Tris-HCl buffer (pH 8.0), 1.0 μg/mL porcine pancreatic elastase, and different concentrations of chalcone derivatives was preincubated at room temperature for 15 min. Afterwards, the addition of the substrate—SANA—started the reaction. Product formation changes were analyzed at λ = 410 nm for 20 min every 20 s (Epoch, BioTek Instruments, Santa Clara, CA, USA). The control was composed of Tris-HCl buffer (pH 8.0), an appropriate concentration of the chalcone derivative, and SANA.
# [1] = test system: Helicobacter pylori ATCC43504; test: MIC determination; type: cell-based; conditions: 37 °C, 48 h
# Procedure: (§1) The MIC determinations for Staphylococcus epidermidis ATCC14990, Staphylococcus aureus ATCC6538, Enterococcus faecalis ATCC51299, Klebsiella pneumoniae ATCC13883, Escherichia coli ATCC8739, Salmonella enterica ATCC13076, Helicobacter pylori ATCC43504, Campylobacter jejuni ZMF, Campylobacter coli ZMF, Bacillus cereus PCM 1948,2019 (ATCC11778), and Listeria monocytogenes PCM2191 were performed based on the methodology described by Krauze-Baranowska et al.. The procedure for H. pylori was used in the experiments with Campylobacter strains, and the procedure for B. subtilis was used in the experiments with L. monocytogenes and B. cereus. The tested samples were dissolved in DMSO and diluted with water (concentration of approximately 500 μg/mL). The solutions were diluted geometrically by transferring the mixture/dilution (100 μL) from the first to the twelfth well of the microtiter plate. The final concentrations of samples used for antimicrobial effects ranged from 500 to 0.006 µg/mL. Ampicillin was used as a reference compound in the concentration range of 128 to 0.0625 µg/mL. The tests were incubated at 37 °C for 48 h. The diluent concentration had no effect on the activity of the tested compounds. All experiments were performed in triplicate.
# [2] = test system: Salmonella enterica ATCC13076; test: MIC determination; type: cell-based; conditions: 37 °C, 48 h
# Procedure: as §1
# [3] = test system: Listeria monocytogenes PCM2191; test: MIC determination; type: cell-based; conditions: 37 °C, 48 h
# Procedure: as §1
# Campylobacter coli ZMF = test: MIC determination; type: cell-based; conditions: 37 °C, 48 h
# Procedure: as §1
# [4] = test system: Staphylococcus aureus ATCC6538; test: MIC determination; type: cell-based; conditions: 37 °C, 48 h
# Procedure: as §1
# [5] = test system: Klebsiella pneumoniae ATCC13883; test: MIC determination; type: cell-based; conditions: 37 °C, 48 h
# Procedure: as §1
# [6] = test system: Enterococcus faecalis ATCC51299; test: MIC determination; type: cell-based; conditions: 37 °C, 48 h
# Procedure: as §1
# Campylobacter jejuni ZMF = test: MIC determination; type: cell-based; conditions: 37 °C, 48 h
# Procedure: as §1
# [7] = test system: Bacillus cereus PCM 1948,2019 (ATCC11778); test: MIC determination; type: cell-based; conditions: 37 °C, 48 h
# Procedure: as §1
# [8] = test system: Staphylococcus epidermidis ATCC14990; test: MIC determination; type: cell-based; conditions: 37 °C, 48 h
# Procedure: as §1
# [9] = test system: Escherichia coli ATCC8739; test: MIC determination; type: cell-based; conditions: 37 °C, 48 h
# Procedure: as §1
# [10] = test system: gastric adenocarcinoma AGS; test: MTT assay, AGS cells; type: cell-based, human
# Procedure: (§2) The human gastric adenocarcinoma AGS, cervical cancer HeLa, and acute promyelocytic leukemia HL-60 cells were obtained from the American Type Culture Collection (ATCC, Manassas, VA, USA). Human neonatal fibroblasts were obtained from LGC Standards (Luckenwalde, Germany). The HeLa and AGS lines were cultured in Dulbecco’s modified Eagle’s medium (DMEM) and DMEM/F12 medium, respectively. The HL-60 line was maintained in RPMI-1640 medium. Fibroblasts were cultured in Fibroblast Growth Medium with Supplement Mix. All the media were supplemented with 100 units/mL of penicillin, 100 µg/mL of streptomycin, and 10% (v/v) fetal bovine serum (FBS) (Merck Millipore, Burlington, MA, USA). The cells were incubated at 37 °C and 5% CO2.
# (§3) To estimate the cytotoxic effect of the five compounds (4–8), MTT (3-(4,5-dimethylthiazol-2-yl)-2,5-diphenyltetrazolium bromide) assay was used. Oxaliplatin was used as a positive control in this test. All the cell lines were seeded in 96-well plates at a density of 5 × 10^3 cells/well and treated for 24 h with the compounds at concentrations of 0.5–40 µg/mL. Oxaliplatin was tested in the range of 20–400 µg/mL (50–1000 µM). After treatment, the cells were incubated with MTT (0.5 mg/mL; Merck Millipore, Burlington, MA, USA) for 3 h. Then, DMSO was used to dissolve formazan crystals, and the absorbance of the formazan solution was measured with a plate reader (Epoch, BioTek Instruments, Santa Clara, CA, USA). All the results (±standard deviation (SD)) were obtained from six repetitions in at least two independent experiments. The data are expressed as IC50 values (µg/mL).
# [11] = test system: human neonatal fibroblasts; test: MTT assay, noncancerous fibroblasts; type: cell-based; conditions: 24 h treatment
# Procedure: as §2, §3
# [12] = DPPH radical scavenging assay; conditions: concentration of 800 µg/mL
# Procedure: The DPPH radical scavenging assay of samples (ligands or complexes) was performed with ascorbic acid as a standard. Different concentrations of chalcone derivatives, dissolved in DMSO, were mixed with the same amount of 0.06 mM DPPH methanolic solution and incubated at room temperature in the dark for 30 min. The absorbance was analyzed at λ = 517 nm using a 96-well microplate reader (Epoch, BioTek System, Winooski, VT, USA). The control was composed of DPPH and DMSO. DPPH inhibition was calculated according to the following Formula (2):DPPH Inhibition (%) = [(Acontrol − Asample)/Acontrol] × 100%(2)
# [13] = test system: acute promyelocytic leukemia HL-60; test: MTT assay, HL-60 cells; type: cell-based, human
# Procedure: as §2, §3
# cervical cancer HeLa = test: MTT assay, HeLa cells; type: cell-based, human
# Procedure: as §2, §3
# caspase-9 = test: Caspase-Glo 9 activity assay in AGS cells; type: cell-based, human; conditions: 20 µg/mL
# Procedure: (§4) The AGS cells were seeded in a 96-well plate (5 × 10^3 cells/well) and treated with compound 5 at concentrations of 1, 5, 7, and 10 µg/mL for 24 h; oxaliplatin at the concentration of 20 µg/mL; and DMSO (1%, v/v). The cells were then treated with reagents from Caspase-Glo 8 Assay or Caspase-Glo 9 Assay (Promega, Madison, WI, USA) and measured with the luminometer Glomax Multi + Detection System (Promega, Madison, WI, USA). The experiments were performed in two independent repeats in three repetitions.
# AGS cells [14] = test: MitoPotential assay (mitochondrial membrane depolarization); type: cell-based, human; conditions: 40 µg/mL, 5 h
# Procedure: The AGS cells were seeded in a 12-well plate (1 × 10^5 cells/well) and incubated with compound 5 at concentrations of 1, 5, and 10 µg/mL; oxaliplatin at the concentration of 40 µg/mL; and DMSO (0.2%, v/v). After 5 h of exposure, the cells were stained with the Muse MitoPotential Assay Kit (Merck Millipore, Burlington, MA, USA) and analyzed with the Muse Cell Analyzer (Merck Millipore, Burlington, MA, USA). The percentage of depolarized live and dead cells was estimated in the experiments, which were independently repeated three times.
# caspase-8 = test: Caspase-Glo 8 activity assay in AGS cells; type: cell-based, human; conditions: 20 µg/mL
# Procedure: as §4
# AGS cells [15] = test: Cell cycle analysis (propidium iodide); type: cell-based, human; conditions: 40 µg/mL
# Procedure: The AGS cells were seeded in a 6-well plate (5 × 10^5 cells/well) and incubated with compound 5 at concentrations of 1, 5, and 10 µg/mL for 48 h; oxaliplatin at the concentration of 40 µg/mL; and DMSO (0.2%, v/v). After treatment, the cells were stained with propidium iodide from the Muse Cell Cycle Assay Kit (Merck Millipore, Burlington, MA, USA), and the amount of cells in each phase of the cell cycle was determined using the Muse Cell Analyzer (Merck Millipore, Burlington, MA, USA). The experiment was independently repeated three times.
# [16] = SI = IC50 noncancer cells/IC50 cancer cells, in relation to human neonatal fibroblasts
# T1 sequence (P00772 27-266): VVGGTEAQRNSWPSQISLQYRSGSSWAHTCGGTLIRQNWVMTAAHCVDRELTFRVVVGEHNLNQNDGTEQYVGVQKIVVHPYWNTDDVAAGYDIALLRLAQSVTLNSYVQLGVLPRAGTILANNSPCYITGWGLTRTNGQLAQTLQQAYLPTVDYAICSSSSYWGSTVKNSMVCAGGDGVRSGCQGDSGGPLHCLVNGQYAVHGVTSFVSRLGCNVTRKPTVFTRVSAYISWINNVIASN
Compound,MIC [1],MIC [2],MIC [3],MIC (Campylobacter coli ZMF),MIC [4],MIC [5],MIC [6],MIC (Campylobacter jejuni ZMF),MIC [7],MIC [8],MIC [9],other results
"Cc1cc(S(=O)(=O)Nc2ccc(C(=O)/C=C/c3ccc(Cl)cc3)cc2)c(Cl)cc1Cl [Compound 7, (E)-2,4-Dichloro-N-{4-[3-(4-Chlorophenyl)acryloyl]phenyl}-5-Methylbenzenesulfonamide]",> 500 mg/L,> 500 mg/L,> 500 mg/L,> 500 mg/L,> 500 mg/L,> 500 mg/L,> 500 mg/L,> 500 mg/L,> 500 mg/L,> 500 mg/L,> 500 mg/L,"IC50 (neutrophil elastase): 53.3 µM; IC50 ([10]; Homo sapiens, AGS, 24 h, MTT, 24 h treatment): < 1 mg/L; selectivity index AGS [10, 16]: 19.08; IC50 ([11]; Homo sapiens, Fibroblast): 29.9 ± 3.27 mg/L; % of DPPH radical inhibition [12]: 18.70 ± 0.04%; IC50 ([13]; Homo sapiens, HL-60, 24 h, MTT, 24 h treatment): < 1.57 mg/L; IC50 HL-60 ([13]; MTT, 24 h treatment): 1.46 ± 0.20 mg/L; selectivity index HL-60 [13, 16]: 20.51; IC50 (cervical cancer HeLa; Homo sapiens, HeLa, MTT, 24 h treatment): 6.34 ± 0.04 mg/L; selectivity index HeLa (cervical cancer HeLa; [16]): 4.72"
"O=C1[O][Pt]2([NH][C@@H]3CCCC[C@H]3[NH]2)[O]C1=O [Oxaliplatin, reference compound]",–,–,–,–,–,–,–,–,–,–,–,"caspase-9 activity (in words) (caspase-9): notable increase; changes in percentages of live, depolarized, and dead cells versus control (AGS cells [14]): no observable changes; caspase-8 activity (in words) (caspase-8): notable increase; IC50 AGS ([10]; MTT, 24 h treatment): 17.90 ± 1.20 mg/L; amount of cells in subG0 phase (in words) (AGS cells [15]): significant increase; cells in G0/G1 phase (AGS cells [15]): 35.6%; cells in G2/M phase (AGS cells [15]): 32.4%; cells in S phase (AGS cells [15]): 14.2%; IC50 Fibroblasts [11]: 95.79 ± 3.24 mg/L; IC50 HeLa (cervical cancer HeLa; MTT, 24 h treatment): 35.76 ± 1.72 mg/L"
"CC1(C)S[C@@H]2[C@H](NC(=O)[C@H](N)c3ccccc3)C(=O)N2[C@H]1C(=O)O [ampicillin, reference compound]",3.2 mg/L,0.5 mg/L,16 mg/L,16 mg/L,0.08 mg/L,62.5 mg/L,0.16 mg/L,32 mg/L,125 mg/L,0.312 mg/L,3.9 mg/L,–
